# Experimental data taken from ChEMBL document CHEMBL5518232, “Discovery of New Tricyclic Oxime Sampangine Derivatives as Potent Antifungal Agents for the Treatment of Cryptococcosis and Candidiasis” (J Med Chem, 2024).
# Calls of active or inactive are those of the source. No cut-off for these calls is given here.
# Legend:
# [1] = tested on: Candida albicans; experiment: Antifungal activity against Candida albicans SC5314 assessed as reduction in fungal growth incubated for 48 hrs by liquid based microdilution method; format: functional
# [2] = tested on: Cryptococcus neoformans; experiment: Antifungal activity against Cryptococcus neoformans H99 assessed as reduction in fungal growth incubated for 72 hrs by liquid based microdilution method; format: functional
# [3] = tested on: Cryptococcus neoformans; experiment: Antifungal activity against Cryptococcus neoformans ATCC 34877 assessed as reduction in fungal growth incubated for 72 hrs by liquid based microdilution method; format: functional
# [4] = tested on: Candida albicans; experiment: Antifungal activity against Candida albicans 0304103 assessed as reduction in fungal growth incubated for 48 hrs by liquid based microdilution method; format: functional
# [5] = tested on: Candida albicans; experiment: Synergistic antifungal activity against Candida albicans 0304103 assessed as fractional inhibitory concentration index by measuring ratio of MIC80 for compound and synergetic / MIC80 for compound alone + MIC80 for fluconazole synergetic / MIC80 for fluconazole alone; format: functional
# [6] = tested on: Nakaseomyces glabratus; experiment: Antifungal activity against Candida glabrata 9073 assessed as reduction in fungal growth incubated for 48 hrs by liquid based microdilution method; format: functional
# [7] = tested on: Candida albicans; experiment: Synergistic antifungal activity against Candida albicans 0304103 assessed as inhibition of fungal growth incubated for 48 hrs in presence of fluconazole by checkerboard microdilution assay; format: functional
# [8] = tested on: Candida tropicalis; experiment: Antifungal activity against Candida tropicalis 10186 assessed as reduction in fungal growth incubated for 48 hrs by liquid based microdilution method; format: functional
# [9] = Antifungal activity against Cryptococcus gattii VGI ATCC 14116 assessed as reduction in fungal growth incubated for 72 hrs by liquid based microdilution method; format: functional
# [10] = tested on: Candida albicans; experiment: Antagonistic antifungal activity against Candida albicans 0304103 assessed as fractional inhibitory concentration index by measuring ratio of MIC80 for compound and synergetic / MIC80 for compound alone + MIC80 for fluconazole synergetic / MIC80 for fluconazole alone; format: functional
# [11] = tested on: Candida albicans; experiment: Inhibition of biofilm formation in Candida albicans 0304103 at 2 ug/ml incubated for 24 hrs by microplate based analysis relative to control; format: functional
# [12] = tested on: Candida albicans; experiment: Antifungal activity against Candida albicans 0304103 assessed as downregulation of GCA1 expression at 8 ug/ml incubated for 24 hrs in presence of fluconazole by RT-PCR analysis; format: functional, organism-based; conditions: dose 8.0 µg/ml
# [13] = tested on: Cryptococcus neoformans; experiment: Antifungal activity against Cryptococcus neoformans H99 assessed as inhibition of fungal growth incubated for 72 hrs by time growth curve assay; format: functional, organism-based; conditions: dose 0.13-2 µg/ml
# [14] = tested on: Cryptococcus neoformans; experiment: Inhibition of biofilm formation in Cryptococcus neoformans H99 at 0.063 ug/ml incubated for 24 hrs by microplate based analysis relative to control; format: functional
# [15] = tested on: Candida tropicalis; experiment: Synergistic antifungal activity against Candida tropicalis 10186 assessed as inhibition of fungal growth incubated for 48 hrs in presence of fluconazole by checkerboard microdilution assay; format: functional, organism-based
# [16] = tested on: Candida albicans; experiment: In vivo antifungal activity against Candida albicans SC5314 infected in […] ICR mouse model assessed as reduction in fungal burden in kidney at 10 mg/kg, ip measured for 5 days in presence of fluconazole; format: functional; conditions: time 5 day
# [17] = tested on: Clavispora lusitaniae; experiment: Synergistic antifungal activity against Candida lusitaniae 9150 assessed as inhibition of fungal growth incubated for 48 hrs in presence of fluconazole by checkerboard microdilution assay; format: functional, organism-based
# [18] = tested on: Candida albicans; experiment: Antifungal activity against Candida albicans 0304103 assessed as reversal of ERG11 expression by measuring fold change at 16 ug/ml incubated for 24 hrs in presence of fluconazole by RT-PCR analysis (reference value: 8.8); format: functional; conditions: dose 16 µg/ml
# [19] = tested on: Candida albicans; experiment: Antifungal activity against Candida albicans 0304103 assessed as inhibition of fungal growth at 32 ug/ml incubated for 72 hrs by time growth curve assay; format: functional, organism-based; conditions: dose 32.0 µg/ml
# [20] = tested on: Candida albicans; experiment: Inhibition of biofilm formation in Candida albicans 0304103 at 0.125 ug/ml incubated for 24 hrs by microplate based analysis relative to control; format: functional
# [21] = tested on: Candida albicans; experiment: Antifungal activity against Candida albicans 0304103 assessed as downregulation of APH5 expression at 8 ug/ml incubated for 24 hrs in presence of fluconazole by RT-PCR analysis; format: functional, organism-based; conditions: dose 8.0 µg/ml
# [22] = tested on: Cryptococcus neoformans; experiment: In vivo antifungal activity against Cryptococcus neoformans H99 infected in cryptococcal meningitis ICR mouse model assessed as reduction in fungal burden in brain at 5 mg/kg, ip measured for 5 days (reference value: 8.18 log10CFU/g); format: functional; conditions: time 5 day
# [23] = tested on: Candida albicans; experiment: In vivo antifungal activity against Candida albicans 0304103 infected in […] ICR mouse model assessed as reduction in fungal burden in kidney at 5 mg/kg, ip measured for 5 days in presence of fluconazole (reference value: 7.37 log10CFU/g); format: functional; conditions: time 5 day
# [24] = tested on: Candida albicans; experiment: Antifungal activity against Candida albicans 0304103 assessed as downregulation of GCA2 expression at 8 ug/ml incubated for 24 hrs in presence of fluconazole by RT-PCR analysis; format: functional, organism-based; conditions: dose 8.0 µg/ml
# [25] = tested on: Cryptococcus neoformans; experiment: Antifungal activity against Cryptococcus neoformans H99 assessed as log reduction in fungal growth at 2 ug/ml incubated for 72 hrs by time growth curve assay (reference value: 7.65 log10CFU/ml); format: functional; conditions: dose 2 µg/ml
# [26] = tested on: Candida albicans; experiment: Antifungal activity against Candida albicans 0304103 assessed as inhibition of fungal growth at 8 ug/ml incubated for 48 hrs in presence of fluconazole by time growth curve assay; format: functional, organism-based; conditions: dose 8.0 µg/ml
# [27] = tested on: Candida albicans; experiment: Antifungal activity against Candida albicans 0304103 assessed as downregulation of TEC1 expression at 8 ug/ml incubated for 24 hrs in presence of fluconazole by RT-PCR analysis; format: functional, organism-based; conditions: dose 8.0 µg/ml
# [28] = tested on: Candida parapsilosis; experiment: Synergistic antifungal activity against Candida parapsilosis 20090 assessed as inhibition of fungal growth incubated for 48 hrs in presence of fluconazole by checkerboard microdilution assay; format: functional, organism-based
# [29] = tested on: Candida albicans; experiment: Antifungal activity against Candida albicans 0304103 assessed as downregulation of CDR1 expression at 16 ug/ml incubated for 24 hrs in presence of fluconazole by RT-PCR analysis; format: functional, organism-based; conditions: dose 16.0 µg/ml
# [30] = tested on: Candida albicans; experiment: In vivo antifungal activity against Candida albicans SC5314 infected in […] ICR mouse model assessed as reduction in fungal burden in kidney at 10 mg/kg, ip measured for 5 days; format: functional, organism-based; conditions: time 5.0 day
# [31] = tested on: Candida albicans; experiment: Antifungal activity against Candida albicans 0304103 assessed as log reduction in fungal growth at 8 ug/ml incubated for 48 hrs by time growth curve assay (reference value: 7.38 log10CFU/ml); format: functional; conditions: dose 8 µg/ml
# [32] = tested on: Candida albicans; experiment: Antifungal activity against Candida albicans 0304103 assessed as downregulation of RLM1 expression at 8 ug/ml incubated for 24 hrs in presence of fluconazole by RT-PCR analysis; format: functional, organism-based; conditions: dose 8.0 µg/ml
# [33] = tested on: Pichia kudriavzevii; experiment: Synergistic antifungal activity against Candida krusei 10153 assessed as inhibition of fungal growth incubated for 48 hrs in presence of fluconazole by checkerboard microdilution assay; format: functional, organism-based
# [34] = tested on: Candida albicans; experiment: Antifungal activity against Candida albicans 0304103 assessed as inhibition of filamentation at 2 ug/ml incubated for 3 hrs by inverted cell microscope based analysis; format: functional, organism-based; conditions: dose 2.0 µg/ml
# [35] = tested on: Candida albicans; experiment: Inhibition of biofilm formation in Candida albicans 0304103 at 2 ug/ml incubated for 24 hrs in presence of fluconazole by microplate based analysis relative to control; format: functional
# [36] = tested on: [Candida] auris; experiment: Synergistic antifungal activity against Candida auris 0029 assessed as inhibition of fungal growth incubated for 48 hrs in presence of fluconazole by checkerboard microdilution assay; format: functional, organism-based; conditions: Candidozyma auris
# [37] = tested on: Candida albicans; experiment: In vivo antifungal activity against Candida albicans 0304103 infected in […] ICR mouse model assessed as reduction in fungal burden in kidney at 5 mg/kg, ip measured for 5 days (reference value: 7.37 log10CFU/g); format: functional; conditions: time 5 day
# [38] = tested on: Cryptococcus neoformans; experiment: Antifungal activity against Cryptococcus neoformans H99 assessed as inhibition of capsule growth at 0.063 to 2 ug/ml measured after 24 hrs by laser confocal microscopy based analysis; format: functional, organism-based; conditions: dose 0.063-2 µg/ml
# [39] = tested on: Candida albicans; experiment: Antifungal activity against Candida albicans 0304103 assessed as downregulation of ERG11 expression at 16 ug/ml incubated for 24 hrs in presence of fluconazole by RT-PCR analysis; format: functional, organism-based; conditions: dose 16.0 µg/ml
# [40] = Effective permeability of the compound across blood brain barrier incubated for 12 hrs by PAMPA assay; format: ADME; conditions: read-out: Peff
# [41] = tested on: Cryptococcus neoformans; experiment: Antifungal activity against Cryptococcus neoformans H99 assessed as inhibition of capsule growth 2 ug/ml measured after 24 hrs by laser confocal microscopy based analysis relative to control; format: functional; design: scale not given: the % may be the effect or the level left; conditions: dose 2 µg/ml
compound,measurement,setting,value
CCO/N=C1/c2ccsc2C(=O)c2c(C)noc21,MIC80,[1],> 64 µg/mL
same,MIC80,[2],0.13 µg/mL
same,MIC80,[3],2 µg/mL
same,MIC80,[4],> 64 µg/mL
same,fractional inhibitory concentration index (FICI),[5],0.047
same,MIC80,[6],> 64 µg/mL
same,MIC80,[7],2 µg/mL
same,MIC80,[8],> 64 µg/mL
same,MIC80,[9],4 µg/mL
CO/N=C1/c2ccsc2/C(=N\OC)c2ccsc21,MIC80,[1],> 64 µg/mL
same,MIC80,[2],32 µg/mL
same,MIC80,[4],> 64 µg/mL
same,MIC80,[6],> 64 µg/mL
same,MIC80,[7],> 64 µg/mL
same,MIC80,[8],> 64 µg/mL
same,fractional inhibitory concentration index (FICI),[10],>2
CCO/N=C1/c2ccccc2C(=O)c2c(C)noc21,MIC80,[1],> 64 µg/mL
same,MIC80,[2],> 64 µg/mL
same,MIC80,[4],> 64 µg/mL
same,fractional inhibitory concentration index (FICI),[5],0.039
same,MIC80,[6],> 64 µg/mL
same,MIC80,[7],2 µg/mL
same,MIC80,[8],> 64 µg/mL
CO/N=C1/c2ccsc2C(=O)c2c(C)noc21,inhibition at 2 µg/mL,[11],~30%
same,Activity,[12],Active
same,Activity,[13],Dose-Dependent Effect
same,inhibition at 0.063 µg/mL,[14],> 90%
same,MIC80,[1],> 64 µg/mL
same,Activity,[15],inactive
same,Activity,[16],5.02 log10CFU/g
same,Activity,[17],inactive
same,fold change (FC),[18],0.8
same,Activity,[19],Active
same,inhibition at 0.125 µg/mL,[20],40%
same,Activity,[21],Active
same,MIC80,[2],0.016 µg/mL
same,Activity,[22],7.96 log10CFU/g
same,MIC80,[3],0.13 µg/mL
same,Activity,[23],5.31 log10CFU/g
same,Activity,[24],Active
same,Activity,[25],6.22 log10CFU/ml
same,Activity,[26],Active
same,Activity,[27],Active
same,MIC80,[4],32 µg/mL
same,fractional inhibitory concentration index (FICI),[5],0.078
same,Activity,[28],inactive
same,MIC80,[6],> 64 µg/mL
same,Activity,[29],Active
same,Activity,[30],Active
same,Activity,[31],6.13 log10CFU/ml
same,Activity,[32],Active
same,Activity,[33],inactive
same,Activity,[34],Active
same,inhibition at 2 µg/mL,[35],50%
same,Activity,[36],inactive
same,MIC80,[7],2 µg/mL
same,MIC80,[8],16 µg/mL
same,Activity,[37],5.73 log10CFU/g
same,Activity,[38],Active
same,MIC80,[9],4 µg/mL
same,Activity,[39],Active
same,Papp at 12 h,[40],8.34 ×10⁻⁶ cm/s
same,Activity,[41],100%
